Data set [1] in a line: Cytotoxicity against human HEK293T cells assessed as cell viability at 1 uM after 24 hrs by MTT assay relative to control. In kind it is cell-based, HEK-293T. The conditions noted are these: read-out: Activity. For orientation: Tetrazolium assays rely on reduction of a dye to a coloured formazan, in cell work by metabolically active cells.
The test system of data set [2] is HEK-293T. Put plainly: Inhibition of Ebola virus VP40 PPxY L-domain motif expressed in HEK293T cells assessed as reduction in VLP budding at 30 nM after 24 hrs by Western blot analysis relative to control. In kind it is cell-based. The conditions noted are these: Ebolavirus. (Immunoblotting shows a protein as a band on a membrane.)
The nature of data set [3]: Effect on cellular protein levels in human HEK293T cells infected with recombinant Vesicular stomatitis virus-M40 expressing Ebola virus VP40 PPxY L-domain motif at 30 to 100 nM after 8 hrs by Western blot analysis relative to control. The format is ADME, cell-based. Conditions: hek-293t, 0.1 µM.
Data set [4] has as its system Liver microsome. Nature of the data set: Intrinsic clearance in human liver microsomes assessed per mg of protein. In kind it is ADME.
Data set [5] is described as follows: Cytotoxicity against African green monkey Vero E6 cells assessed as cell viability at 10 uM after 24 hrs by MTT assay relative to control. In kind it is cell-based. The conditions noted are these: chlorocebus sabaeus, read-out: Activity.
Data set [6] concerns the target T1, Matrix protein VP40 (Lake Victoria marburgvirus (strain Ravn-87) (MARV) (Marburg virus (strainKenya/Ravn/1987))) (UniProt Q1PDC8).
T1 sequence (whole entry): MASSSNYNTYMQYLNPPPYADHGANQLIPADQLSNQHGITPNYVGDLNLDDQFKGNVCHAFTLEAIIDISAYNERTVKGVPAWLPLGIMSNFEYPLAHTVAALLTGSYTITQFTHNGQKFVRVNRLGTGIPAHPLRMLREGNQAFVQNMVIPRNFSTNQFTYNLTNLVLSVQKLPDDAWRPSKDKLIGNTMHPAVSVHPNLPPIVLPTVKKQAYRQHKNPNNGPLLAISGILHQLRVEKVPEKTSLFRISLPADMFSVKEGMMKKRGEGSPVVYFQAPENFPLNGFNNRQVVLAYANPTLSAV
Put plainly: Inhibition of Marburg virus VP40 PPxY L-domain motif expressed in HEK293T cells assessed as reduction in VLP budding at 100 nM after 24 hrs by Western blot analysis. Conditions: HEK-293T. In kind it is cell-based.

Data set [7] concerns Vesicular stomatitis virus. Put plainly: Effect on viral protein levels in recombinant Vesicular stomatitis virus-M40 expressing Ebola virus VP40 PPxY L-domain motif infected in HEK293T cells at 30 to 100 nM after 8 hrs by Western blot analysis relative to control. In kind it is ADME, organism-based. Conditions: hek-293t, 0.1 µM.
For data set [8], the system named is Liver microsome. Nature of the data set: Half life in human liver microsomes. In kind it is ADME.
A short description of data set [9]: Cytotoxicity against human HEK293T cells assessed as cell viability at 0.1 uM after 24 hrs by MTT assay relative to control. Conditions: read-out: Activity. The format is cell-based, HEK-293T.
For data set [10], the target named is T1, Matrix protein VP40 (Lake Victoria marburgvirus (strain Ravn-87) (MARV) (Marburg virus (strainKenya/Ravn/1987))). Put plainly: Inhibition of Marburg virus VP40 PPxY L-domain motif-Nedd4 interaction in HEK293T cells coexpressing NYFP-Nedd4 and CYFP-mVP40 at 0.1 uM by inverted confocal microscopy based bimolecular complementation assay. Conditions: HEK-293T. The format is cell-based.

The subject of data set [11] is HEK-293T. Nature of the data set: Inhibition of Ebola virus VP40 PPxY L-domain motif expressed in HEK293T cells assessed as reduction in VLP budding at 100 nM after 24 hrs by Western blot analysis relative to control. In kind it is cell-based. The conditions noted are these: Ebolavirus.
Data set [12] is described as follows: Cytotoxicity against African green monkey Vero E6 cells assessed as cell viability at 0.1 uM after 24 hrs by MTT assay relative to control. The format is cell-based. The conditions noted are these: chlorocebus sabaeus, read-out: Activity.
The target in data set [13] is Cytochrome P450 3A4 (Homo sapiens, UniProt P08684). Nature of the data set: Inhibition of CYP3A4 (unknown origin) using midazolam as substrate. The format is ADME.
Sequence of Cytochrome P450 3A4 (P08684 whole entry): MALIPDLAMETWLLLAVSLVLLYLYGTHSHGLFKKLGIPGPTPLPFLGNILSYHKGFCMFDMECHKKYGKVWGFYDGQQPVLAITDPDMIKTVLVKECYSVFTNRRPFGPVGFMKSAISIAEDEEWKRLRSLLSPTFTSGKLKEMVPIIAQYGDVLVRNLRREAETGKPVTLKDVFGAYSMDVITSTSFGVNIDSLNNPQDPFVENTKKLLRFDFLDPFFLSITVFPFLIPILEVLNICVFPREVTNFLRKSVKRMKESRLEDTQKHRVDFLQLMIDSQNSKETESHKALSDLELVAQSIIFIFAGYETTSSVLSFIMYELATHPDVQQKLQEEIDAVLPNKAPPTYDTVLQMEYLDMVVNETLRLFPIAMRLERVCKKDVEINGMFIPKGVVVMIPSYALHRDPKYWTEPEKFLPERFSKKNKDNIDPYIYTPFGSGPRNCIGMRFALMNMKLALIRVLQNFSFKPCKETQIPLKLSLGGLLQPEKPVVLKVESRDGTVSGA
Data set [14] in a line: Cytotoxicity against human HEK293T cells assessed as cell viability at 0.01 uM after 24 hrs by MTT assay relative to control. The format is cell-based, HEK-293T. The conditions noted are these: read-out: Activity.
Data set [15] concerns the target T1, Matrix protein VP40 (Lake Victoria marburgvirus (strain Ravn-87) (MARV) (Marburg virus (strainKenya/Ravn/1987))). Nature of the data set: Inhibition of Marburg virus VP40 PPxY L-domain motif expressed in HEK293T cells assessed as reduction in VLP budding at 0.03 uM relative to control. The conditions noted are these: HEK-293T. In kind it is cell-based.
The nature of data set [16]: Cytotoxicity against African green monkey Vero E6 cells assessed as cell viability at 1 uM after 24 hrs by MTT assay relative to control. The format is cell-based. The conditions noted are these: chlorocebus sabaeus, read-out: Activity.
Data set [17] has as its target T1, Matrix protein VP40 (Lake Victoria marburgvirus (strain Ravn-87) (MARV) (Marburg virus (strainKenya/Ravn/1987))). Nature of the data set: Inhibition of Marburg virus VP40 PPxY L-domain motif expressed in HEK293T cells assessed as reduction in VLP budding at 0.1 uM relative to control. The format is cell-based. The conditions noted are these: HEK-293T.
The nature of data set [18]: Cytotoxicity against African green monkey Vero E6 cells assessed as cell viability at 0.01 uM after 24 hrs by MTT assay relative to control. In kind it is cell-based. Conditions: chlorocebus sabaeus, read-out: Activity.
The nature of data set [19]: Cytotoxicity against human HEK293T cells assessed as cell viability at 10 uM after 24 hrs by MTT assay relative to control. In kind it is cell-based, HEK-293T. Conditions: read-out: Activity.
Data set [20] is described as follows: Half life in mouse liver microsomes. In kind it is ADME. On the technique in general: Liver microsomes are vesicles of endoplasmic reticulum, rich in cytochrome P450 enzymes.
The target of data set [21] is T1, Matrix protein VP40 (Lake Victoria marburgvirus (strain Ravn-87) (MARV) (Marburg virus (strainKenya/Ravn/1987))). Put plainly: Inhibition of Marburg virus VP40 PPxY L-domain motif expressed in HEK293T cells assessed as reduction in VLP budding at 30 nM after 24 hrs by Western blot analysis relative to control. In kind it is cell-based. The conditions noted are these: HEK-293T.

Data set [22] has the same target. Put plainly: Inhibition of Marburg virus VP40 PPxY L-domain motif expressed in HEK293T cells assessed as reduction in VLP budding at 25 uM relative to control. The format is cell-based. The conditions noted are these: HEK-293T.
The target is the same in data set [23]. Put plainly: Inhibition of Marburg virus VP40 PPxY L-domain motif expressed in HEK293T cells assessed as reduction in VLP budding at 1 uM relative to control. In kind it is cell-based. Conditions: HEK-293T.
Data set [24] can be described thus: Intrinsic clearance in mouse liver microsomes assessed per mg of protein. The format is ADME.
The target in data set [25] is T1, Matrix protein VP40 (Lake Victoria marburgvirus (strain Ravn-87) (MARV) (Marburg virus (strainKenya/Ravn/1987))). Put plainly: Inhibition of Marburg virus VP40 PPxY L-domain motif expressed in HEK293T cells assessed as reduction in VLP budding at 0.3 uM relative to control. In kind it is cell-based. The conditions noted are these: HEK-293T.
For data set [26] the target is unchanged. Nature of the data set: Inhibition of Marburg virus VP40 PPxY L-domain motif expressed in HEK293T cells assessed as reduction in VLP budding at 10 uM relative to control. The format is cell-based. Conditions: HEK-293T.
For data set [27] the target is unchanged. Put plainly: Inhibition of Marburg virus VP40 PPxY L-domain motif expressed in HEK293T cells assessed as reduction in VLP budding at 1 uM after 24 hrs by Western blot analysis relative to control. The format is cell-based. The conditions noted are these: HEK-293T.

The inhibition is the change of the read-out against control, counted positive when it falls. The IC50 is the concentration at which inhibition is half-maximal.

Calls of active or inactive are those of the source. No cut-off for these calls is given here.

For `Cc1nc2ccccc2nc1SCC(=O)NC(=O)Nc1ccccc1Cl`, the viability at 24 h, 1 µM was determined as 63.9% in [1] and 79.1% in data set [16]. Moreover, the inhibition result in data set [2], in [6], in [10], in [11] and in data set [21] was “Active” throughout. For the same compound, the Activity result in data set [3] and in data set [7] was “Non-toxic” in each case. This compound registered an Intrinsic clearance in data set [4] of 0.72 mL/min. The viability at 24 h, 10 µM in [5] came out at 80.9%; in data set [19] it was 65.4%. Besides, the t1/2 in data set [8] turned out to be 76.1 min; in data set [20], 2 min. Moreover, the viability at 24 h, 0.1 µM in [9] worked out at 69.3%; in data set [12] it was 101%. This compound also came in with an IC50 in data set [13] greater than 33 µM. Besides, the viability at 24 h, 0.01 µM was determined as 96.9% in data set [14] and 101% in [18]. Also, the inhibition turned out to be 93% in data set [15] and 99% in data set [17].

Take `CCNC(=O)NC(=O)CSc1nc2ccccc2nc1C`: the inhibition in data set [22] stood at 60%. Moreover, the inhibition entry in data set [17] and in data set [23] was “inactive” each time.

For the compound `Cc1ccc(NC(=O)NC(=O)CSc2nc3ccccc3nc2C)cc1`, the viability at 24 h, 1 µM in data set [1] came out at 61.8%; in data set [16], 78.5%. In [24], this compound returned a CLH greater than 50 mL/min. For the same compound, the Intrinsic clearance in data set [4] is 0.95 mL/min. For the same compound, the viability at 24 h, 10 µM in [5] came out at 69.8%; in [19], 52.8%. Moreover, the inhibition in data set [6] was greater than 90%; in [15], 93%; in data set [25], 100%; in data set [17], 100%; in data set [23] it was 100%. Besides, the t1/2 in data set [8] is 57.7 min; in data set [20], less than 1.4 min. Also, the figures for the viability at 24 h, 0.1 µM in data set [9] and in data set [12] were 81.9% and 93.9%, respectively. Also, the IC50 in data set [13] is greater than 33 µM. Moreover, the viability at 24 h, 0.01 µM in [14] is 98.3%; in data set [18] it was 98.4%. In addition, the fold change (FC) in data set [21] amounted to 15.

Consider `Cc1nc2ccccc2nc1SCC(=O)NC(=O)NC1CC1`, for which the inhibition entry in data set [17] and in data set [23] was “inactive” throughout. The inhibition in [26] turned out to be 60%.

In [4], `Cc1nc2ccccc2nc1SCC(=O)NC(=O)Nc1ccccc1` yielded an Intrinsic clearance of 1.66 mL/min. Moreover, the t1/2 in data set [8] amounted to 43.9 min. Further, in data set [27], the fold change (FC) is 100. The inhibition in data set [23] is 88%.

With `Cc1nc2ccccc2nc1SCC(=O)NC(=O)Nc1cccc(F)c1C`, the viability at 24 h, 1 µM in data set [1] was 60.1%; in data set [16], 78.7%. Also, the Activity result in data set [3] and in data set [7] was “Non-toxic” in each case. The compound also had an Intrinsic clearance in data set [4] of 0.54 mL/min. For the same compound, the viability at 24 h, 10 µM in data set [5] was found to be 84%; in data set [19], 63.5%. Further, the t1/2 is greater than 90 min in data set [8] and 3.5 min in data set [20]. In addition, the viability at 24 h, 0.1 µM in [9] was 70.4%; in [12], 92.6%. In [10], the inhibition result was “Active”. In data set [13], this compound came in with a concentration for half-maximal inhibition (IC50) greater than 33 µM. Besides, the viability at 24 h, 0.01 µM worked out at 95.1% in [14] and 102% in data set [18]. Besides, the inhibition in data set [15] came to 86%; in [17], 100%.

These data come from ChEMBL document CHEMBL3826909, “Quinoxaline-based inhibitors of Ebola and Marburg VP40 egress” (Bioorg Med Chem Lett, 2016).
